These are literature values, as cited in patent publication US7405313B2, “Method for the synthesis of basic chromium carboxylates” (The Board of Trustees of the University of Alabama, priority 2006, dated 2008).

One data set relates to colorectal cancer. As to conditions: rat.
The conditions of data set [1]: compared to other chromium-containing nutritional supplements.
Data set [2] relates to healthy and model type 2 diabetic rats.
Another data set relates to rats on regular diets. The settings on record: for effect on body mass, percentage lean or fat content, tissue size, or blood variables (fasting glucose, insulin, cholesterol, etc.): rats on regular diets.
[3] abbreviates: healthy and model type 2 diabetic rats.

Take `CCC(=O)[O-].CCC(=O)[O-].CCC(=O)[O-].CCC(=O)[O-].CCC(=O)[O-].CCC(=O)[O-].O.O.O.[Cr+3].[Cr+3].[Cr+3].[O-2]` [Complex 1, [Cr3O(O2CCH2CH3)6(H2O)3]^+]: the dissolution in water result was “dissolves in water very rapidly”. In addition, the “onset of colorectal cancer” value in the data set with colorectal cancer is “reduce the onset of colorectal cancer”. Moreover, the absorption entry in data set [1] is “absorbed very rapidly and very efficiently”. In addition, the glycated hemoglobin result in data set [2] (diabetes models) is given as “reduce glycated hemoglobin”. In addition, in data set [2] (setting [3]), the “blood plasma cholesterol and triglycerides levels” value was “improve blood plasma cholesterol and triglycerides levels”; the insulin sensitivity result was “increase insulin sensitivity”.
With `[Cl][Cr]([Cl])[Cl]` [chromium chloride], in the data set on rats on regular diets, the “effect on body mass, percentage lean or fat content, tissue size, or blood variables (fasting glucose, insulin, cholesterol, etc.)” value is “no effect”.
In the case of “chromium(III) tris(picolinate) [Cr(pic)3]”, the “effect on body mass, percentage lean or fat content, tissue size, or blood variables (fasting glucose, insulin, cholesterol, etc.)” value with rats on regular diets is on record as “no effect”. Also, in the data set with rats on regular diets (rats, amounts up to 1500 μg/kg diet for up to 24 weeks), the acute toxic effects result is recorded as “no acute toxic effects”.
